This is an account of results in patent publication US6716833B2, “Acetylenic α-amino acid-based sulfonamide hydroxamic acid tace inhibitors” (priority 1999, dated 2004).

pIC50: −log10 of the molar value.

Data set [1] concerns the target TNF-α converting enzyme (TACE) (Homo sapiens, UniProt P78536). Put plainly: TACE inhibition (fluorescent peptidyl substrate). It is filed as biochemical. The note with it: read-out: TACE IC50.
Experimental: Using 96-well black microtiter plates, each well receives a solution composed of 10 μL TACE (final concentration 1 μg/mL), 70 μL Tris buffer, pH 7.4 containing 10% glycerol (final concentration 10 mM), and 10 μL of test compound solution in DMSO (final concentration 1 μM, DMSO concentration <1%) and incubated for 10 minutes at room temperature.
The reaction is read (excitation 340 nm, emission 420 nm) for 10 min. and the increase in fluorescence over time is plotted as a linear line. The slope of the line is calculated and represents the reaction rate.
The linearity of the reaction rate is confirmed (r^2>0.85). The mean (x±sem) of the control rate is calculated and compared for statistical significance (p<0.05) with drug-treated rates using Dunnett's multiple comparison test.
The target in data set [2] is MMP-13 (Homo sapiens, UniProt P45452). Description: MMP-13 inhibition (thiopeptide or fluorescent peptide substrate). The data set is classed as biochemical. Conditions: read-out: MMP-13 IC50.
Data set [3] has as its target MMP-9 (Homo sapiens, UniProt P14780). Put plainly: MMP-9 inhibition (thiopeptide or fluorescent peptide substrate). The data set is classed as biochemical. The note with it: read-out: MMP-9 IC50.
Experimental: The enzyme activity is measured by the rate of the color increase. The thiopeptide substrate is made up fresh as a 20 mM stock in 100% DMSO and the DTNB is dissolved in 100% DMSO as a 100 mM stock and stored in the dark at room temperature. Both the substrate and DTNB are diluted together to 1 mM with substrate buffer (50 mM HEPES pH 7.5, 5 mM CaCl2) before use. The stock of enzyme is diluted with buffer (50 mM HEPES, pH 7.5, 5 mM CaCl2, 0.02% Brij) to the desired final concentration.
Alternatively, a fluorescent peptide substrate is used. In this test procedure, the peptide substrate contains a fluorescent group and a quenching group. Upon cleavage of the substrate by an MMP, the fluorescence that is generated is quantitated on the fluorescence plate reader. The assay is run in HCBC assay buffer (50 mM HEPES, pH 7.0, 5 mM Ca^+2, 0.02% Brij, 0.5% Cysteine), with human recombinant MMP-1, MMP-9, or MMP-13. […] For the assay, substrate and enzymes are diluted in HCBC buffer to the desired concentrations. Compounds are added to the 96 well plate containing enzyme and the reaction is started by the addition of substrate.
For either the thiopeptide or fluorescent peptide test procedures, the slope of the line is calculated and represents the reaction rate. The linearity of the reaction rate is confirmed (r^2>0.85). The mean (x±sem) of the control rate is calculated and compared for statistical significance (p<0.05) with drug-treated rates using Dunnett's multiple comparison test.
Data set [4] deals with THP-1 cells. Put plainly: THP-1 soluble protein assay, soluble TNF-α (ELISA). Conditions: Homo sapiens, THP-1, 3 μM; THP-1 cells; read-out: THP % Inhibition @ 3 μM. The data set is classed as cell-based, human. Background: An ELISA detects its analyte on a solid surface through an enzyme-linked reagent.
Experimental: Each vial of cells are cultured for about two weeks prior to being used for an assay and then are used for only 4 to 6 weeks to screen compounds.
Cell exposure to DMSO was limited to 0.1% final concentration. […] Plates are placed into an incubator set at 5% CO2 and at 37° C. After 4 hours of incubation, 300 ml/well of tissue culture supernatant (TCS) is removed for use in an TNF-α ELISA.
Percent change in each soluble protein evaluated from the “vehicle positive control” was calculated for each compound concentration with the following formula:
% Change=pg/ml (compound)−pg/ml (veh pos control)/(veh pos control)−pg/ml (veh neg control)×100
For the soluble protein (TNF-α, p75/80, p55/60, IL-8) studies under stimulated conditions, the mean pg/ml of duplicate wells were determined and the results expressed as percent change from “vehicle positive control”.
The target of data set [5] is T1, MMP-1 (Homo sapiens, UniProt P03956).
T1 sequence (P03956 100-469): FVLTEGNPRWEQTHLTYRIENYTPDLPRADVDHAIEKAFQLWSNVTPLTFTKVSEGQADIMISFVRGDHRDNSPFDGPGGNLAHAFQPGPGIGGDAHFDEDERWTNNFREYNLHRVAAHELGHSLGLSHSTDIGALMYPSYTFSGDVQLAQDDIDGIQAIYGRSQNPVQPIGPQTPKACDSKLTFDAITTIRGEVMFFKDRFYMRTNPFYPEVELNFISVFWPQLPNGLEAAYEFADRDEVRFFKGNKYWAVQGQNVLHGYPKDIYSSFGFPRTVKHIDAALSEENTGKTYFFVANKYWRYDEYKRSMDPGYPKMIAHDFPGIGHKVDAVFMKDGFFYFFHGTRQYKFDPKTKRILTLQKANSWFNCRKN
Put plainly: MMP-1 inhibition (thiopeptide or fluorescent peptide substrate). The data set is classed as biochemical. The note with it: read-out: MMP-1 IC50.

Chain of TNF-α converting enzyme (TACE) (P78536 215-824, species assumed): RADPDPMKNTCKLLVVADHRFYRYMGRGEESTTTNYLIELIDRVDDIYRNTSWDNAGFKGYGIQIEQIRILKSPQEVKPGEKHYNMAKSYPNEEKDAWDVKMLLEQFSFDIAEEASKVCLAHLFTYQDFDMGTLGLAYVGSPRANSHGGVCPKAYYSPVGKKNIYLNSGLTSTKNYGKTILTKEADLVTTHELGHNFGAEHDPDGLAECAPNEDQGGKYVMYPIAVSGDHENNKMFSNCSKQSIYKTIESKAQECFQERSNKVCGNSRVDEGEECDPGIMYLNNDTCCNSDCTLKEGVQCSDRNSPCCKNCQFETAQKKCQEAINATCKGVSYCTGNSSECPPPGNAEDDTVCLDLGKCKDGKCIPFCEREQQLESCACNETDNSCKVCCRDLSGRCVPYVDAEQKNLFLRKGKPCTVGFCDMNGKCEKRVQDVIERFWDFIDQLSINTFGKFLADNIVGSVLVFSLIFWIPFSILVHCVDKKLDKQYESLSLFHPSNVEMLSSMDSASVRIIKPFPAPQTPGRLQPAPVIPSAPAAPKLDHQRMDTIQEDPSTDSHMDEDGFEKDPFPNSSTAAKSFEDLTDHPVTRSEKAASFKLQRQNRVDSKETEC
Chain of MMP-9 (P14780 94-707): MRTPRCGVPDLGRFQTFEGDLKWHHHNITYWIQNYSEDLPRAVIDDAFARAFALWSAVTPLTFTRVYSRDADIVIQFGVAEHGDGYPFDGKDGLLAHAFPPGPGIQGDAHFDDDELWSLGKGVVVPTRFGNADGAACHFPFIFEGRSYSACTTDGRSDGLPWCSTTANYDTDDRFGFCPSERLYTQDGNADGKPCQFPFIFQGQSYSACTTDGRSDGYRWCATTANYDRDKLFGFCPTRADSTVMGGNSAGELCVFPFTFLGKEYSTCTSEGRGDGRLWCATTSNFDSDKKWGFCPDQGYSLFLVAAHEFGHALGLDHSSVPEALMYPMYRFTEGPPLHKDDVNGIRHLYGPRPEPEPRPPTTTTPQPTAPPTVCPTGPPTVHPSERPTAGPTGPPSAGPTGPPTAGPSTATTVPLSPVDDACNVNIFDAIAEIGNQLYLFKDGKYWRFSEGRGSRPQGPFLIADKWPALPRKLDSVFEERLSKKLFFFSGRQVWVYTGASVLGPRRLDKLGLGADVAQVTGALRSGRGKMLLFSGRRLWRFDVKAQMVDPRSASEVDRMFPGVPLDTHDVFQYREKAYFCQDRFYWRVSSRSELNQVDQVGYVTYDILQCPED

As to `CC#CCOc1ccc(S(=O)(=O)N[C@@H](C(=O)NO)C2CCC(O)CC2)cc1` (stereo partly drawn) [Example 129, (2R)-{[4-(2-Butynyloxy)phenyl]sulfonyl}amino-N-hydroxy-2-(4-hydroxycyclohexyl)ethanamide], the melting point (commonly the temperature of the solid-liquid transition) fell in the range of 180 to 182 °C. In addition, the pIC50 (usually the negative decadic logarithm of the IC50, by convention in mol/L) in data set [1] was 8.13. The negative-log IC50 (pIC50) in data set [2] was 7.55. Further, the pIC50 in data set [3] is 6.72. Further, the inhibition (usually the drop in the measured response relative to a control, in per cent) at 3 µM in data set [4] is 92%. In addition, the pIC50 in data set [5] is 5.98.
`CC#CCOc1ccc(S(=O)(=O)NC2(C(=O)NO)CCCCC2)cc1` [Example 138, 1-({[4-(2-Butynyloxy)phenyl]sulfonyl}amino)-N-hydroxycyclohexanecarboxamide] came in with a melting point of 82 to 84 °C. The pIC50 in data set [1] is 7.57. The pIC50 in data set [2] is 6.21. Moreover, the negative logarithm of the IC50 (pIC50) in data set [3] was 5.66. In addition, the inhibition at 3 µM in data set [4] stood at 19%. Further, the negative logarithm of the IC50 (pIC50) in data set [5] is 5.29.
For the molecule `CC#CCOc1ccc(S(=O)(=O)NC2(C(=O)NO)CCCC2)cc1` [Example 139, 1-({[4-(2-Butynyloxy)phenyl]sulfonyl}amino)-N-hydroxycyclopentanecarboxamide], the melting point is 66 to 68 °C. In data set [1], the pIC50 is 7.43. Moreover, in data set [2], the negative logarithm of the IC50 (pIC50) was 5.90. Moreover, the pIC50 in data set [3] is 5.43. The inhibition at 3 µM in data set [4] came to 26%. Moreover, in data set [5], the pIC50 is below 5.00.
The molecule `CC#CCOc1ccc(S(=O)(=O)N[C@@H](C(=O)NO)C(C)(C)SC)cc1` [Example 158] gave a melting point of 128 to 132 °C. Further, in data set [1], the negative logarithm of the IC50 (pIC50) is 7.60. In data set [2], the pIC50 was 7.52. Moreover, the pIC50 in data set [3] is 6.79. Moreover, in data set [4], the inhibition at 3 µM amounted to 78%. In data set [5], the pIC50 is 5.99.
The molecule `CC#CCOc1ccc(S(=O)(=O)NC(C(=O)NO)C(C)(C)SCC)cc1` (centres unmarked) [Example 159, 2-[(4-but-2-ynyloxy-Benenesulfonyl)-amino]-N-hydroxy-3-methyl-3-ethylsulfanyl-butyramide] gave a melting point of 46 to 50 °C. Besides, the negative logarithm of the IC50 (pIC50) in data set [1] is 7.92. Besides, the negative logarithm of the IC50 (pIC50) in data set [2] is 7.38. The negative logarithm of the IC50 (pIC50) in data set [3] is 6.37. Also, the inhibition at 3 µM in data set [4] amounted to 76%. For the same molecule, in data set [5], the negative-log IC50 (pIC50) was 6.07.
Molecule `CC#CCOc1ccc(S(=O)(=O)NC(C(=O)NO)C(C)(C)SCCC)cc1` (centres unmarked) [Example 160, 2-[(4-but-2-ynyloxy-Benenesulfonyl)-amino]-N-hydroxy-3-methyl-3-propylsulfanyl-butyramide] had a melting point of 152 to 155 °C. Besides, the pIC50 in data set [1] was 7.82. In addition, the pIC50 in data set [2] was 7.19. For the same molecule, the pIC50 in data set [3] is 6.00. Also, the inhibition at 3 µM in data set [4] is 67%. The pIC50 in data set [5] is 5.85.
The molecule `CC#CCOc1ccc(S(=O)(=O)NC(C(=O)NO)C(C)(C)SCc2ccccc2)cc1` (centres unmarked) [Example 162] returned a melting point of 92 to 95 °C. Moreover, the pIC50 in data set [1] was 7.72. In data set [2], the pIC50 is 8.08. Further, in data set [3], the negative-log IC50 (pIC50) was 6.86. Besides, in data set [4], the inhibition at 3 µM is 49%. Also, the negative-log IC50 (pIC50) in data set [5] is 6.51.
`CC#CCOc1ccc(S(=O)(=O)NC(C(=O)NO)C(C)(C)SCc2nccn2C)cc1` (centres unmarked) [Example 163] came in with a melting point of 112 to 115 °C. The pIC50 in data set [1] is 7.74. Moreover, in data set [2], the pIC50 was 7.33. Moreover, in data set [3], the pIC50 was 6.51. Besides, the inhibition at 3 µM in data set [4] is 77%. For the same molecule, the negative logarithm of the IC50 (pIC50) in data set [5] is 5.76.
As to `CC#CCOc1ccc(S(=O)(=O)NC(C(=O)NO)C(C)(C)SCCN2CCOCC2)cc1` (centres unmarked) [Example 164], the melting point was determined as 72 °C. The negative-log IC50 (pIC50) in data set [1] was 7.19. In addition, in data set [2], the negative-log IC50 (pIC50) was 7.70. In data set [3], the pIC50 was 6.69. In addition, in data set [4], the inhibition at 3 µM was 70%. For the same molecule, in data set [5], the negative logarithm of the IC50 (pIC50) is 5.80.
For the molecule `CC#CCOc1ccc(S(=O)(=O)NC(C(=O)NO)C(C)(C)SCC(=O)OC(C)(C)C)cc1` (centres unmarked) [Example 165], the melting point was in the range of 47 to 52 °C. Besides, in data set [1], the pIC50 was 7.16. Further, the pIC50 in data set [2] was 6.75. Moreover, the negative-log IC50 (pIC50) in data set [3] is 6.23. Besides, the inhibition at 3 µM in data set [4] came out at 84%. Also, the negative-log IC50 (pIC50) in data set [5] is 5.61.
For `CC#CCOc1ccc(S(=O)(=O)NC(CSCCCCCCCCCC/C=C\CC)C(=O)NO)cc1` (centres unmarked) [Example 170, 2-({[4-(2-butynyloxy)phenyl]sulfonyl}amino)-N-hydroxy-3-[(Z)-11-tetradecenylsulfanyl]propanamide], the pIC50 was 6.57 in data set [1], 6.49 in data set [2], 5.80 in data set [3] and below 5.00 in data set [5]. Further, the inhibition at 3 µM in data set [4] was found to be 7%.
